Key:
[1] = target: Sigma non-opioid intracellular receptor 1 (Homo sapiens) (UniProt Q99720); conditions: Compound concentration 10.0 uM
Mus musculus = organism: Mus musculus; test: Inhibition of Phorbol Ester at 10 µM in the Eurofins-Panlabs radioligand binding assay (Eurofins_assay_264500); parameters: ligand concentration 3 nM; conditions: Compound concentration 10.0 uM
[2] = target: D(1A) dopamine receptor (Homo sapiens) (UniProt P21728); conditions: Compound concentration 10.0 uM
[3] = target: Histamine H1 receptor (Homo sapiens) (UniProt P35367); conditions: Compound concentration 10.0 uM
Sequence of Histamine H1 receptor (Homo sapiens) (P35367 whole entry): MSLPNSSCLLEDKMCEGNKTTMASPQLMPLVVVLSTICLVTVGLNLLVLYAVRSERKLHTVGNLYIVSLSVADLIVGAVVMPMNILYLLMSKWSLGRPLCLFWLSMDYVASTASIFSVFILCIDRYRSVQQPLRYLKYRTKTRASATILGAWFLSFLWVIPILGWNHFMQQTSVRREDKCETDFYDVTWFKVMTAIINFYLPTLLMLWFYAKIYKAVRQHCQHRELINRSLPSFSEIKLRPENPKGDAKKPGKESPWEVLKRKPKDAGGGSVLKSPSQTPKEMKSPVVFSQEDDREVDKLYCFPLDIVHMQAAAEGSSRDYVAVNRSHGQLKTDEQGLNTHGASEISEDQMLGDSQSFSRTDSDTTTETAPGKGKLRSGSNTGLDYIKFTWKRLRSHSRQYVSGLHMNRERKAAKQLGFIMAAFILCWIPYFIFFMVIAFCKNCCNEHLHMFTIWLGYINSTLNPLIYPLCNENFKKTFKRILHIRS

[4] = target: Insulin receptor (Homo sapiens) (UniProt P06213); conditions: Rattus norvegicus; Compound concentration 10.0 uM
[5] = target: 5-hydroxytryptamine receptor 2B (Homo sapiens) (UniProt P41595); conditions: Compound concentration 10.0 uM
Rattus norvegicus [6] = organism: Rattus norvegicus; test: Opiate, Non-Selective Eurofins-Panlabs radioligand binding assay; parameters: ligand concentration 1 nM; conditions: Compound concentration 10.0 uM
[7] = target: Beta-3 adrenergic receptor (Homo sapiens) (UniProt P13945); conditions: Compound concentration 10.0 uM
[8] = target: T1, GABA-A receptor; anion channel (Rattus norvegicus) (UniProt O09028+P15431+P18506+P18508+P19969+P20236+P23574+P23576+P28471+P28473+P30191+P62813+P63079+P63138+Q91ZM7+Q9ES14); conditions: Compound concentration 10.0 uM
[9] = target: T2, Muscarinic acetylcholine receptor M1 (Homo sapiens) (UniProt P11229); conditions: Compound concentration 10.0 uM
T2 sequence (whole entry): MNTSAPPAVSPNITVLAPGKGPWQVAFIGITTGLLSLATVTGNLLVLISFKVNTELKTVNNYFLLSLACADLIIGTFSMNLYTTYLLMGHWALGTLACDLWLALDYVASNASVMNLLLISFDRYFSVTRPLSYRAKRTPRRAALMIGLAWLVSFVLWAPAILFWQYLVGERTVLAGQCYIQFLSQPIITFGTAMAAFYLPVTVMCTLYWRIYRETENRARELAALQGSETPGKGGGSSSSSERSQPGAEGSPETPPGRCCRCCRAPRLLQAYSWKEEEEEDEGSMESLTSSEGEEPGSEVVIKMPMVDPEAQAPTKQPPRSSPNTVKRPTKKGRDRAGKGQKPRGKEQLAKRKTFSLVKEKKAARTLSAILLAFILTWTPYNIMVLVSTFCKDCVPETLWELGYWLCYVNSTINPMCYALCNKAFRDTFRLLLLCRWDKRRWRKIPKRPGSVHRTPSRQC

[10] = target: 5-hydroxytryptamine receptor 1E (Homo sapiens) (UniProt P28566); conditions: Compound concentration 10.0 uM
[11] = target: T1, GABA-A receptor; anion channel (Rattus norvegicus); conditions: Compound concentration 10.0 uM; remark: listed apart in the source
[12] = target: Alpha-2B adrenergic receptor (Homo sapiens) (UniProt P18089); conditions: Compound concentration 10.0 uM
[13] = target: D(2) dopamine receptor (Homo sapiens) (UniProt P14416); conditions: Compound concentration 10.0 uM
Sequence of D(2) dopamine receptor (Homo sapiens) (P14416 whole entry): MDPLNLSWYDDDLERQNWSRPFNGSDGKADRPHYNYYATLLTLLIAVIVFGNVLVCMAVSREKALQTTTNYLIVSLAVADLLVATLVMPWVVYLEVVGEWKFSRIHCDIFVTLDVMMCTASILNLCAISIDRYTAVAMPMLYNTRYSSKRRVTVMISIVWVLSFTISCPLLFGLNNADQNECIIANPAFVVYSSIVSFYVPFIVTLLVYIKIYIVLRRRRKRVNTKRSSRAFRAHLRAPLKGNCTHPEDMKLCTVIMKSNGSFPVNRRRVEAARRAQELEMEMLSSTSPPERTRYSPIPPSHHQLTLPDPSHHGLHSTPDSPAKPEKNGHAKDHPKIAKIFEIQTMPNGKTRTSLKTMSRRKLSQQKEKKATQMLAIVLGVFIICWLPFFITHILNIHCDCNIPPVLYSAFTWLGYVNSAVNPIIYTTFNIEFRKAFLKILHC

[14] = target: Adenosine receptor A3 (Homo sapiens) (UniProt P0DMS8); conditions: Compound concentration 10.0 uM
Sequence of Adenosine receptor A3 (Homo sapiens) (P0DMS8 whole entry): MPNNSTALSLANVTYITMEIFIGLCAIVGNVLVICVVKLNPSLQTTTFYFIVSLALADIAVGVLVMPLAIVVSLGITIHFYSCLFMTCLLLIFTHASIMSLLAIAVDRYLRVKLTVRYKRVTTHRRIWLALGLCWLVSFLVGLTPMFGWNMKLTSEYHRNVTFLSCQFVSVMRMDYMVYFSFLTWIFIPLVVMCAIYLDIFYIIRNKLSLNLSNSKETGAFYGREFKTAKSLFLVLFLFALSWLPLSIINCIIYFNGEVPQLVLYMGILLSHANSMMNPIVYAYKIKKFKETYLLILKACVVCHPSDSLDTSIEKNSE

[15] = target: Alpha-2A adrenergic receptor (Homo sapiens) (UniProt P08913); conditions: Compound concentration 10.0 uM
Sequence of Alpha-2A adrenergic receptor (Homo sapiens) (P08913 whole entry): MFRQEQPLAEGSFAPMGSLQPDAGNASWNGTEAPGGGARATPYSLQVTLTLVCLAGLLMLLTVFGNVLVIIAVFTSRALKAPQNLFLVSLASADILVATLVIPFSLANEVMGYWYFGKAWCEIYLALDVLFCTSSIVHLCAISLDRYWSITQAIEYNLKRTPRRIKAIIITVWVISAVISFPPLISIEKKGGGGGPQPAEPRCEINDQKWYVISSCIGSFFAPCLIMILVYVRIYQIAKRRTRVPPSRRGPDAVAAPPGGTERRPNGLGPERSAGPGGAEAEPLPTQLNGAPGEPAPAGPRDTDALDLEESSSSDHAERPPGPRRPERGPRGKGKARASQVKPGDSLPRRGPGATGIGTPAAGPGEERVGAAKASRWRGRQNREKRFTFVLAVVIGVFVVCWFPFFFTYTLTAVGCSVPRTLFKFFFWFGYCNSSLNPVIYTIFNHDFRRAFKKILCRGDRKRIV

Homo sapiens [16] = organism: Homo sapiens; test: Prostanoid, Thromboxane A2 (TP) Eurofins-Panlabs radioligand binding assay; parameters: ligand concentration 5 nM, non-specific ligand with concentration 1 µM SQ-29548, incubation time 30 min, incubation temperature 25 °C; conditions: Compound concentration 10.0 uM
[17] = target: Histamine H2 receptor (Homo sapiens) (UniProt P25021); conditions: Compound concentration 10.0 uM
Rattus norvegicus [18] = organism: Rattus norvegicus; test: Inhibition of Glycine, Strychnine-Sensitive at 10 µM in the Eurofins-Panlabs radioligand binding assay (Eurofins_assay_239000); conditions: Compound concentration 10.0 uM
[19] = target: Vasopressin V1a receptor (Homo sapiens) (UniProt P37288); test: Vasopressin V1A Eurofins-Panlabs radioligand binding assay; parameters: ligand concentration 0.01 nM; conditions: Compound concentration 10.0 uM
[20] = target: D(1A) dopamine receptor (Homo sapiens) (UniProt P21728); conditions: Compound concentration 10.0 uM; remark: listed apart in the source
[21] = target: Sodium-dependent noradrenaline transporter (Homo sapiens) (UniProt P23975); conditions: Compound concentration 10.0 uM
Sequence of Sodium-dependent noradrenaline transporter (Homo sapiens) (P23975 whole entry): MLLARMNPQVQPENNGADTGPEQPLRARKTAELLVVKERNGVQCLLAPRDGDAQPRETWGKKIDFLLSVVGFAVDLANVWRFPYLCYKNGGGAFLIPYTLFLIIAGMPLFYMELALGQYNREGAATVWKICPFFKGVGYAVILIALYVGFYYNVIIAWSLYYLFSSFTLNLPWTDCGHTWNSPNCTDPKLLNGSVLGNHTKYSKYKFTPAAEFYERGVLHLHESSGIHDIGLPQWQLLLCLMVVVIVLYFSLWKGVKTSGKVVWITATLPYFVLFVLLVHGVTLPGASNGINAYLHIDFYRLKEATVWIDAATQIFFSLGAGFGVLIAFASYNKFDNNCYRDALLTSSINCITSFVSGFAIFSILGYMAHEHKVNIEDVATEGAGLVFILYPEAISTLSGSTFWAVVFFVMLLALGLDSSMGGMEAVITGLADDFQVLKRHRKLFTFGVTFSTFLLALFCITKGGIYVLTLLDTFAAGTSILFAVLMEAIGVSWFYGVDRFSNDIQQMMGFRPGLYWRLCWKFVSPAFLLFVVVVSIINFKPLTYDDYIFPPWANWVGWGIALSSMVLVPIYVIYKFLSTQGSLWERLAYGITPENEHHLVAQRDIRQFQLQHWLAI

[22] = target: Gamma-aminobutyric acid type B receptor subunit 1 (Homo sapiens) (UniProt Q9UBS5); test: GABAB1B Eurofins-Panlabs radioligand binding assay; conditions: Compound concentration 10.0 uM
Sequence of Gamma-aminobutyric acid type B receptor subunit 1 (Homo sapiens) (Q9UBS5 whole entry): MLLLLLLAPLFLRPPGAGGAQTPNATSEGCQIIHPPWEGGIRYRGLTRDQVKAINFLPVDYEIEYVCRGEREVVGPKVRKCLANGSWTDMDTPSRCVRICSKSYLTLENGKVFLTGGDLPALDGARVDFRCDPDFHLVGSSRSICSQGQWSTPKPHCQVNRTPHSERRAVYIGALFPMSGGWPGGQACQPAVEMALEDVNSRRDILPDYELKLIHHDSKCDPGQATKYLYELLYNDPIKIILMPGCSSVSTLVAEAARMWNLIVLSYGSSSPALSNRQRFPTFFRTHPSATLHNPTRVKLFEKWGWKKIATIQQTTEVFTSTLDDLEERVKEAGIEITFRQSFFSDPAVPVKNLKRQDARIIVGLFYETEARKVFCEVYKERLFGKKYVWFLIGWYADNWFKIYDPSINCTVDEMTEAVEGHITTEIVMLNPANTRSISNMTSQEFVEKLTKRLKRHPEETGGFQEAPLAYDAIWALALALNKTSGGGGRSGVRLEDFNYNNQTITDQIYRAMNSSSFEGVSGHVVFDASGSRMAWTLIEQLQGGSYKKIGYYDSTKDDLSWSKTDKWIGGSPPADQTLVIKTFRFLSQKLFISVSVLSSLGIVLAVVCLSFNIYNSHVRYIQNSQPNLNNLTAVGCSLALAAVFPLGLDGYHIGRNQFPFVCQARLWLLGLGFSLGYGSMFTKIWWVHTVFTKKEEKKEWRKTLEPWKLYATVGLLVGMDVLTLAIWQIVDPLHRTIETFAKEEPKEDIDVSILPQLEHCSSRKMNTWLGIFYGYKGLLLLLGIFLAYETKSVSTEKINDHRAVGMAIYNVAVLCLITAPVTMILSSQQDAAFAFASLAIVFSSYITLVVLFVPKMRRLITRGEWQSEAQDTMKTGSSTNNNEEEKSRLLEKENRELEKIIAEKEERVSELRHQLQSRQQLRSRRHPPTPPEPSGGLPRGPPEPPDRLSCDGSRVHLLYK

Rattus norvegicus [23] = organism: Rattus norvegicus; test: Adrenergic α2, Non-selective Eurofins-Panlabs radioligand binding assay; format: protein assay; conditions: Compound concentration 10.0 uM
[24] = target: T1, GABA-A receptor; anion channel (Rattus norvegicus); test: Inhibition of GABAA, Muscimol, Central at 10 µM in the Eurofins-Panlabs radioligand binding assay (Eurofins_assay_226500); format: protein-complex assay; conditions: Compound concentration 10.0 uM
[25] = target: Substance-K receptor (Homo sapiens) (UniProt P21452); test: Inhibition of Tachykinin NK2 at 10 µM in the Eurofins-Panlabs radioligand binding assay (Eurofins_assay_255600); parameters: ligand concentration 0.5 nM; conditions: Compound concentration 10.0 uM
Homo sapiens [26] = organism: Homo sapiens; test: Chemokine CXCR1/2 (IL-8, Non-selective) Eurofins-Panlabs radioligand binding assay; conditions: Compound concentration 10.0 uM
[27] = target: B2 bradykinin receptor (Homo sapiens) (UniProt P30411); test: Bradykinin B2 Eurofins-Panlabs radioligand binding assay; conditions: Compound concentration 10.0 uM
Sequence of B2 bradykinin receptor (Homo sapiens) (P30411 whole entry): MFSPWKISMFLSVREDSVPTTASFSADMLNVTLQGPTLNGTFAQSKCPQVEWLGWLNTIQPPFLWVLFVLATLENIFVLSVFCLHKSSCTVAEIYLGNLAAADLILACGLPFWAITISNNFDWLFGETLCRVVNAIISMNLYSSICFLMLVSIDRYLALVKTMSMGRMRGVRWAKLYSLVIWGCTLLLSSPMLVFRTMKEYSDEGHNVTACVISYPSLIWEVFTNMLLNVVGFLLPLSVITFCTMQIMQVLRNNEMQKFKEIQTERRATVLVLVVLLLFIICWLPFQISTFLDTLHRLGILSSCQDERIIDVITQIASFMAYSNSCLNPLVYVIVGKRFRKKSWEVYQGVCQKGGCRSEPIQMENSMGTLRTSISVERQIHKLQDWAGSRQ

[28] = target: D(2) dopamine receptor (Homo sapiens) (UniProt P14416); conditions: Compound concentration 10.0 uM; remark: listed apart in the source
[29] = target: Glutamate receptor 2 (Homo sapiens) (UniProt P42262); conditions: Rattus norvegicus; Compound concentration 10.0 uM
[30] = target: Muscarinic acetylcholine receptor M5 (Homo sapiens) (UniProt P08912); conditions: Compound concentration 10.0 uM
Sequence of Muscarinic acetylcholine receptor M5 (Homo sapiens) (P08912 whole entry): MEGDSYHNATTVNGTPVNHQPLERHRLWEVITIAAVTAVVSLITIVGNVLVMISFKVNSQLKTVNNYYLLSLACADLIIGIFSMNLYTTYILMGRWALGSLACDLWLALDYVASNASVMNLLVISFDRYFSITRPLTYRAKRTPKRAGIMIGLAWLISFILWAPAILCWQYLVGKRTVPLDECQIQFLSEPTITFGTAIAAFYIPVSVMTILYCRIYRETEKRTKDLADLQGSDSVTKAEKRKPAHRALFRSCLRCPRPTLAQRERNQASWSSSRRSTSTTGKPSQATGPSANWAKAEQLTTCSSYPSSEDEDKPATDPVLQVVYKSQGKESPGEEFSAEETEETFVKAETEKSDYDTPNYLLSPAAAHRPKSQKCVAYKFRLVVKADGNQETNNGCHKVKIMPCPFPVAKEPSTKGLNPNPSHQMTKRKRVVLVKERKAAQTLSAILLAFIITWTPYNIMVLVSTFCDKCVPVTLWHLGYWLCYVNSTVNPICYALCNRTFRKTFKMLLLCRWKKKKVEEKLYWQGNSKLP

Sequence of D(1A) dopamine receptor (Homo sapiens) (P21728 whole entry): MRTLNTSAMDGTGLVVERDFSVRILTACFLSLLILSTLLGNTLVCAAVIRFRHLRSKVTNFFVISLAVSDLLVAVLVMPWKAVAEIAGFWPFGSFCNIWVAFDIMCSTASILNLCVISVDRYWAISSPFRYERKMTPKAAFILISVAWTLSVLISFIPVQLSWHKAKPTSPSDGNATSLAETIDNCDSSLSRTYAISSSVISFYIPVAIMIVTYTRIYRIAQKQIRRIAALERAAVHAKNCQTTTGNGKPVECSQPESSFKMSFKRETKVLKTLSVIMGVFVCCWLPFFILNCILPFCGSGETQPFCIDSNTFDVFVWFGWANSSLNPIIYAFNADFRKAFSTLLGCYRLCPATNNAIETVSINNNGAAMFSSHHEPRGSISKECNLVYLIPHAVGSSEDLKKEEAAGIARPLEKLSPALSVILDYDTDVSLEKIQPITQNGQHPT
Sequence of Sigma non-opioid intracellular receptor 1 (Homo sapiens) (Q99720 whole entry): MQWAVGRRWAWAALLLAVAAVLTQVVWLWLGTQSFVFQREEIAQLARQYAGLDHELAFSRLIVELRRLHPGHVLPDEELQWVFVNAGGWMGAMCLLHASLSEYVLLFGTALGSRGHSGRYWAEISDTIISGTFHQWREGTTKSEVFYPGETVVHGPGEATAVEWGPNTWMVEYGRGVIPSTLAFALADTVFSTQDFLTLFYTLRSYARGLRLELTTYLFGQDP

| SMILES | inhibition [1] | inhibition (Mus musculus) | inhibition [2] | inhibition [3] | inhibition [4] | inhibition [5] | inhibition (Rattus norvegicus [6]) | inhibition [7] | inhibition [8] | inhibition [9] | inhibition [10] | inhibition [11] | inhibition [12] | inhibition [13] | inhibition [14] | inhibition [15] | inhibition (Homo sapiens [16]) | inhibition [17] | inhibition (Rattus norvegicus [18]) | inhibition [19] | also measured |
| --- | --- | --- | --- | --- | --- | --- | --- | --- | --- | --- | --- | --- | --- | --- | --- | --- | --- | --- | --- | --- | --- |
| Cc1cc(OC2CCS(=O)(=O)CC2)cc(C)c1-c1cccc(COc2ccc(C(=O)O)c(F)c2)c1 | 16.7% | -3% | -3% | -2.18% | 0% | 3% | 3% | 6.71% | 14% | -1.5% | -1.42% | 19.5% | -0.21% | 8.6% | 0% | 13.1% | 28% | 7.66% | 5% | -4% | inhibition [20]: 20.9%; inhibition [21]: 5%; inhibition [22]: 10%; inhibition (Rattus norvegicus [23]): 6%; inhibition [24]: 8%; inhibition [25]: 3%; inhibition (Homo sapiens [26]): 4%; inhibition [27]: -4%; inhibition [28]: -4%; inhibition [29]: -3%; inhibition [30]: -4.74% |
| Cc1cc(OC2CCS(=O)(=O)CC2)cc(C)c1-c1cccc(COc2ccc(CCC(=O)O)c(F)c2)c1 | 8.9% | -9% | 24% | 12% | 7% | 21.5% | -8% | -5.43% | 21% | 15.8% | 3.83% | 23.7% | 13.1% | 16.6% | 5% | 13% | 60% | 5.95% | 7% | 0% | inhibition [20]: 13.7%; inhibition [21]: 22%; inhibition [22]: 1%; inhibition (Rattus norvegicus [23]): 8%; inhibition [24]: 3%; inhibition [25]: 29%; inhibition (Homo sapiens [26]): 3%; inhibition [27]: 7%; inhibition [28]: -2%; inhibition [29]: 4%; inhibition [30]: 20.4% |
